For assay [1], the system named is hot flashes. Kind of assay: Randomized double-blind placebo controlled clinical trial of duloxetine for hot flashes (Example 1). The note with it: Group 1: Duloxetine 60 mg QD + Placebo; eight to twelve weeks.
Procedure: Patients eligible for a clinical trial include women who are either 1) naturally menopausal; or 2) pre-menopausal but had undergone bilateral oophorectomy surgery within four weeks prior to the commencement of the study. All the women in the study experience a minimum of thirty five hot flashes per week. […] The women or men are divided into two groups for a randomized double-blind placebo controlled study.
The groups receive drug or placebo as illustrated below:
Group 1: Duloxetine (60 mg QD)+Placebo
For three weeks both groups are administered placebo only. For eight to twelve weeks thereafter, each group is administered drug or placebo. Data is collected (numbers/severity of hot flashes experienced) from each participant during and at the end of the test period.
In assay [2] the test system is hot flashes. The settings on record: menopausal women (survivors of breast cancer) suffering from hot flashes; versus only 20% with placebo; cited from earlier work.

Structures are written as SMILES.

In the case of `CNCCC(Oc1cccc2ccccc12)c1cccs1` (centres unmarked) [duloxetine, N-methyl-3-(1-naphthalenyloxy)-3-(2-thienyl)propanamine], the “incidence of hot flashes relative to the placebo groups (Groups 2 and 3)” value with hot flashes [1] is “decrease”.
For `COc1ccc(C(CN(C)C)C2(O)CCCCC2)cc1` (centres unmarked) [venlafaxine], the “treated menopausal women reporting a greater than 50% decrease in hot flash frequency” value in the assay with hot flashes [2] was 45%.
